In patent US10724000B2, “Small molecule based conversion of somatic cells into neural crest cells” (Hoffmann-La Roche Inc., priority 2013, dated 2020):

What was measured:
[1] = test system: SCC058 foreskin fibroblasts; assay: Sphere formation assay of fibroblasts in suspension culture; format: cell-based, human; conditions: day 3, FIG. 1B, 1D
Protocol: SCC058 foreskin fibroblasts (Millipore) were cultured at 37° C. and 5% CO2 in low serum FibroGro (Millipore). For conversion, 7300 cells/cm^2 were seeded in fibroblast medium containing 1 mM Valproic acid (VPA, Sigma). Then, cells were treated for two days with 1 mM VPA, and 6 μg/ml polybrene (Millipore) and subsequently transferred to low attachment plates in NSC medium for sphere formation. NSC medium consisted of NeuroCult NS-A proliferation medium (StemCell Technologies) supplemented with Penicillin/streptomycin, bFGF (20 ng/ml), EGF (20 ng/ml), BDNF (20 ng/ml), Heparin (2 μg/ml), D114 (500 ng/ml), Jagged1 (500 ng/ml), SHH (500 ng/ml, peprotech), Ascorbic Acid (0.2 mM, Sigma), FGF8a (100 ng/ml), 10% NSC-CM (medium conditioned by ESC-NSCs), and Compound B (2 μM, Roche).
• [3R,4R]-N-{4-[4-(2-Fluoro-6-hydroxy-3-methoxy-benzoyl)-benzoyl amino]-azep+an-3-yl}-4-hydroxy-3,5-dimethyl-benzamide hydrochlorid All growth factors were from R&D systems if not indicated otherwise. To compare effects of other inhibitors, Compound B was replaced by 2 μM Dorsomorphin, 10 uM H89 (Tocris), 10 μM Y27632, or 10 μM GSK650394 (Tocris), respectively. After four days, spheres were dissociated with Accutase and single cells were seeded in low attachment plates in NSC medium supplemented with inhibitor mix comprising 500 ng/ml Noggin (peprotech), 10 μM SB431452 (Tocris), and 1 μM CP21 (Roche).

mesenchymal stem cells = assay: Mesenchymal stem cell proliferation; format: cell-based; conditions: FIG. 1A
ESC-NSCs = assay: Neural stem cell proliferation, ATP assay (CellTiterGlo); format: cell-based, human; conditions: ATP assay after four days, FIG. 1A
Protocol: Embryonic stem cell-derived neural stem cells (ESC-NSCs) were generated as previously described using dual SMAD inhibition protocol (Chambers et al., 2009). NSCs were cultured on POL coated plates at 37° C., 5% CO2 in N2B27 supplemented with bFGF (10 ng/ml), EGF (10 ng/ml), BDNF (20 ng/ml). For Compound B identification, NSCs were seeded on POL coated plates at 21000 cells/cm^2 in N2B27. After cell attachment (4 h), compounds were added at indicated concentrations. Negative control cells were treated with DMSO. Cells were incubated for four days and subsequently the amount of ATP was determined using the CellTiterGlo® kit (Promega) according to the manufacturer's instructions.

[2] = test system: fibroblast-derived secondary spheres; assay: Attachment of secondary spheres to laminin substrate (POL); format: cell-based, human; conditions: two hours after plating on POL; FIG. 6
Protocol: • [3R,4R]-N-{4-[4-(2-Fluoro-6-hydroxy-3-methoxy-benzoyl)-benzoyl amino]-azep+an-3-yl}-4-hydroxy-3,5-dimethyl-benzamide hydrochlorid All growth factors were from R&D systems if not indicated otherwise. To compare effects of other inhibitors, Compound B was replaced by 2 μM Dorsomorphin, 10 uM H89 (Tocris), 10 μM Y27632, or 10 μM GSK650394 (Tocris), respectively. After four days, spheres were dissociated with Accutase and single cells were seeded in low attachment plates in NSC medium supplemented with inhibitor mix comprising 500 ng/ml Noggin (peprotech), 10 μM SB431452 (Tocris), and 1 μM CP21 (Roche). After 3 days, secondary spheres were seeded on polyornithine-laminin (POL) coated dishes. After attachment (24 hours), medium was replaced with differentiation medium comprising N2B27 (1:1 DMEM/F12 and Neurobasal with beta-mercaptoethanol (50 μM), B27 supplement without vitamin A (1:50, Invitrogen), and N2 supplement (1:100, Invitrogen)) supplemented with antibiotics, BDNF (20 ng/ml), GDNF (20 ng/ml), Laminin ([…]), Ascorbic Acid (0.2 mM) and dibutyryl-cAMP (0.5 mM, Sigma). Every other day, 50% of medium was exchanged. For the first seven days of differentiation, medium was supplemented with the inhibitor mix.

SGK1 = target: T1, SGK1 (Homo sapiens, UniProt O00141); assay: Kinase selectivity profiling (ProfilerPro Kinase Kits); format: biochemical; conditions: FIG. 1C
T1 construct: purchased Caliper (PerkinElmer) ProfilerPro Kinase Kits
T1 sequence (O00141 1-431): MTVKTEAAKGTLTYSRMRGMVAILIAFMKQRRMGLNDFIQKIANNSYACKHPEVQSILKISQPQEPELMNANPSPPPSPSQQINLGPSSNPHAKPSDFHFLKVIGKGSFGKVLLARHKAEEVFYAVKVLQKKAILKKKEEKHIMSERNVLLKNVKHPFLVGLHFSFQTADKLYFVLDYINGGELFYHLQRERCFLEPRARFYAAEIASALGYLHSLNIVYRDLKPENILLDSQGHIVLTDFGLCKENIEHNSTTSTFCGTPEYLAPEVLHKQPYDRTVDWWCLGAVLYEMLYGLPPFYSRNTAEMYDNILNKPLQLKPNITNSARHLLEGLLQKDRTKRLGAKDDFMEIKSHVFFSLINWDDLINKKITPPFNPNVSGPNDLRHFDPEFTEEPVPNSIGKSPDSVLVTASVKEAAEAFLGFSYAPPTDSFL
Protocol: (§1) Kinase Selectivity Profiling Kinase selectivity profiling was performed using ProfilerPro Kinase Kits from Caliper (PerkinElmer) according to the manufacturer's instructions.

MSK1 = target: T2, MSK1 (Homo sapiens, UniProt O75582); assay: as above; format: biochemical; conditions: FIG. 1C
T2 construct: purchased Caliper (PerkinElmer) ProfilerPro Kinase Kits
Protocol: as §1

PKA = target: T3, PKA (Homo sapiens, UniProt P17612); assay: as above; format: biochemical; conditions: FIG. 1C
T3 construct: purchased Caliper (PerkinElmer) ProfilerPro Kinase Kits
Protocol: as §1

PKGa = target: T4, PKGa (Homo sapiens, UniProt Q13976); assay: as above; format: biochemical; conditions: FIG. 1C
T4 construct: purchased Caliper (PerkinElmer) ProfilerPro Kinase Kits
T4 sequence (Q13976 1-671): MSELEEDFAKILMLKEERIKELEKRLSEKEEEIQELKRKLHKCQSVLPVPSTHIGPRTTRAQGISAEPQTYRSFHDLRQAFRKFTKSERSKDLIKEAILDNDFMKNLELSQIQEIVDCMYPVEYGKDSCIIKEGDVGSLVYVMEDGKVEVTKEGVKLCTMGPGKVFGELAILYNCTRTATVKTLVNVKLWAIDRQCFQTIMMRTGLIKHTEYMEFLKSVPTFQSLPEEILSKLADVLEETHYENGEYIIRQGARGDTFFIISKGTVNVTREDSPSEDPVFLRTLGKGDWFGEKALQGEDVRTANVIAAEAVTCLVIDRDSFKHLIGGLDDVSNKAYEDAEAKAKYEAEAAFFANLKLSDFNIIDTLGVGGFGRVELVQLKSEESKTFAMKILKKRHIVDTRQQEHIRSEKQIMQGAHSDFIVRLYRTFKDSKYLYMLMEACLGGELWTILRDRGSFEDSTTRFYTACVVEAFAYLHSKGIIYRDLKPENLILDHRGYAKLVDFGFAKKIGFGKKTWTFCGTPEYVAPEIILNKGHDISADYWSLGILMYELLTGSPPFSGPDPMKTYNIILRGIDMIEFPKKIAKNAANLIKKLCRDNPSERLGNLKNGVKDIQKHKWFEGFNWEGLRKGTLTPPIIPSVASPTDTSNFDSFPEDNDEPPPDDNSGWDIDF
Protocol: as §1

ROCK2 = target: T5, ROCK2 (Homo sapiens, UniProt O75116); assay: as above; format: biochemical; conditions: FIG. 1C
T5 construct: purchased Caliper (PerkinElmer) ProfilerPro Kinase Kits
Protocol: as §1

AMPK = assay: as above; format: biochemical; conditions: FIG. 1C
Protocol: as §1

T2 sequence (O75582 whole entry, species assumed): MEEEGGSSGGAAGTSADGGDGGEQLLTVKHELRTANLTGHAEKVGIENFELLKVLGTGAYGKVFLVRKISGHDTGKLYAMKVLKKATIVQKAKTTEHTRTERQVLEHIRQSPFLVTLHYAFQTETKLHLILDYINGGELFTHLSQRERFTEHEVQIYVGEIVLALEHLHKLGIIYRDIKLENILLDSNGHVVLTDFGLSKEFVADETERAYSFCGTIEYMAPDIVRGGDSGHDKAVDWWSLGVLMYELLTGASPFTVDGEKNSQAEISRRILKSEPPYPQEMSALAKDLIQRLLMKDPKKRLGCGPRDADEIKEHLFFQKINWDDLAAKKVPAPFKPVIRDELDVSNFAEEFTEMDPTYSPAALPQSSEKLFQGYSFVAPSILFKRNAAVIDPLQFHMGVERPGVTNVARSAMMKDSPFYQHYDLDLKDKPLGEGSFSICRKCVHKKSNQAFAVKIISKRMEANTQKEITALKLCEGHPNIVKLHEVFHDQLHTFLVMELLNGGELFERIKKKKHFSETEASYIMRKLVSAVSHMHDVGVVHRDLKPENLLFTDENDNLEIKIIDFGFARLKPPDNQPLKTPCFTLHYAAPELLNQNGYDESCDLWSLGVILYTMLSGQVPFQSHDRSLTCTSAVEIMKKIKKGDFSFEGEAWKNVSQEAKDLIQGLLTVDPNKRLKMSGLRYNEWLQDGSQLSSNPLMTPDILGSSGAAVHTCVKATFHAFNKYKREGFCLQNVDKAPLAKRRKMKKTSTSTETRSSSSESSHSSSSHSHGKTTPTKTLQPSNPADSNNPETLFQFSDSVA
T5 sequence (O75116 whole entry, species assumed): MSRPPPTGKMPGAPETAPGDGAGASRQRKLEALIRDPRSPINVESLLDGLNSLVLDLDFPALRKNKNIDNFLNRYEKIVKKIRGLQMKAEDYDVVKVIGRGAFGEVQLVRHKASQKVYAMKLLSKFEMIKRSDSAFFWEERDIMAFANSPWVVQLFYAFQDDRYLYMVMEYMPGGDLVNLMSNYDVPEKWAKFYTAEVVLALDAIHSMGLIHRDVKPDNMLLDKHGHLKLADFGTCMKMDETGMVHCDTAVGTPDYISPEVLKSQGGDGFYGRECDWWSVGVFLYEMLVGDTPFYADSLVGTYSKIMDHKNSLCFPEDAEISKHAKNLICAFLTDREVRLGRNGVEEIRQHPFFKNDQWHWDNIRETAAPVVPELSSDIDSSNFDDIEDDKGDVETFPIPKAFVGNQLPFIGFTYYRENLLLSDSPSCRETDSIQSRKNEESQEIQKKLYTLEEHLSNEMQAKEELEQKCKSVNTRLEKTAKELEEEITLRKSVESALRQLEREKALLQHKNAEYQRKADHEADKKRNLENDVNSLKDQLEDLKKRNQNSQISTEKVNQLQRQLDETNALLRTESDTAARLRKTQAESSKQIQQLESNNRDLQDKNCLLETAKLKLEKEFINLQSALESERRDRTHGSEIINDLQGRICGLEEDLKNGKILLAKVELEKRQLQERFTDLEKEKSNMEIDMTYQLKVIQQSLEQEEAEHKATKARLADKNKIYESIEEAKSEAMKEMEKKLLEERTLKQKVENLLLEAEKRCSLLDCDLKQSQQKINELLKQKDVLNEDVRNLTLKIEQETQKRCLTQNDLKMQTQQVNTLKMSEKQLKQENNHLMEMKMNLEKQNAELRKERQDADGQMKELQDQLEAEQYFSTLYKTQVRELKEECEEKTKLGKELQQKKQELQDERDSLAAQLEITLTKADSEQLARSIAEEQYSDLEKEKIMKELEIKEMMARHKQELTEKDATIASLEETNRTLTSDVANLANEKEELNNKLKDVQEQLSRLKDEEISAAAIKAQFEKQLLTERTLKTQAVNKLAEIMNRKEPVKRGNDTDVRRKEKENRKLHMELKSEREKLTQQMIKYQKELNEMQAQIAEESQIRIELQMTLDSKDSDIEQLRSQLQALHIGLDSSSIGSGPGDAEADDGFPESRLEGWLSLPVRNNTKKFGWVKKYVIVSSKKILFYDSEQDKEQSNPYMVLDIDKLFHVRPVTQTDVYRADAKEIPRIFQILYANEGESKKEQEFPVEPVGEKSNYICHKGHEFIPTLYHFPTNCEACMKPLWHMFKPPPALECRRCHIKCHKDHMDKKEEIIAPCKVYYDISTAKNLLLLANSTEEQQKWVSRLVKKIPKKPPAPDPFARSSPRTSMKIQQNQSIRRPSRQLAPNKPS

| SMILES | sphere size [1] | total cell number in suspension culture [1] | effect on mesenchymal stem cells (proliferation) (mesenchymal stem cells) | proliferation of neural stem cells (ESC-NSCs) | attachment and migration of spheres on laminin substrate [2] | inhibition of SGK1 (SGK1) | inhibition of MSK1 (MSK1) | inhibition of PKA (PKA) | inhibition of PKGa (PKGa) | inhibition of ROCK2 (ROCK2) | inhibition of AMPK (AMPK) |
| --- | --- | --- | --- | --- | --- | --- | --- | --- | --- | --- | --- |
| COc1ccc(O)c(C(=O)c2ccc(C(=O)N[C@@H]3CCCNC[C@H]3NC(=O)c3cc(C)c(O)c(C)c3)cc2)c1F.Cl [Compound B, N-{(3R,4R)-4-[4-(2-Fluoro-6-hydroxy-3-methoxy-benzoyl)-benzoylamino]-azepan-3-yl}-4-hydroxy-3,5-dimethyl-benzamide] | significant increase | significant increase | no effect | promoted proliferation of ESC-NSCs in a dose-dependent manner | have attached and started to migrate | over 80% | over 80% | over 80% | over 80% | over 80% | over 80% |
| C[C@@H](N)[C@H]1CC[C@H](C(=O)Nc2ccncc2)CC1 [Compound Y27142, reference compound] | increase in sphere size, albeit not at the same extent as Compound B |  |  |  |  |  |  |  |  |  |  |
| O=S(=O)(NCCNC/C=C/c1ccc(Br)cc1)c1cccc2cnccc12 [Compound H89, reference compound] | increase in sphere size, albeit not at the same extent as Compound B |  |  |  |  |  |  |  |  |  |  |
